In PubChem BioAssay AID248 (DTP/NCI, 2004):
Several values for one entry are separate records, joined by “and”; a condition that tells them apart may be missing. Equal entries are not always repeated. Toxic doses and inconclusive results are not listed. Cut-off read from the data, not from the text of the source: active = T/C of 150% or more; inactive = T/C below 125%.

System: L1210 leukemia ip in BDF1 mice, survival T/C
Assay: NCI In Vivo Anticancer Drug Screen. Data for tumor model L1210 Leukemia (intraperitoneal) in B6D2F1 (BDF1) mice
Conditions: endpoint: mean survival time, higher = longer survival
Outline: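 In this screen, tumor-bearing mice given compound are compared to those given vehicle, and their survival values are reported as a treated-to-control quotient.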

[1] = dose: 100.0 mg/kg/injection, schedule: Q01DX009 (ip), vehicle: Klucel (hydroxypropylcellulose) (HPC)
[2] = dose: 100.0 mg/kg/injection, schedule: Q04DX003 (ip), vehicle: Klucel (hydroxypropylcellulose) (HPC)
[3] = dose: 200.0 mg/kg/injection, schedule: Q04DX003 (ip), vehicle: Klucel (hydroxypropylcellulose) (HPC)

Measured: T/C

Nc1nc2ncc(CNc3ccc(C(=O)NC(CCC(=O)O)C(=O)O)cc3)nc2c(=O)[nH]1 (configuration not stated)
inactive: dose: 1.6 mg/kg/injection, schedule: Q01DX009 (ip), vehicle: saline with Tween-80 93 % of control and 98 % of control | dose: 3.2 mg/kg/injection, schedule: Q01DX009 (ip), vehicle: saline with Tween-80 101 % of control and 109 % of control | dose: 6.3 mg/kg/injection, schedule: Q01DX009 (ip), vehicle: saline with Tween-80 93 % of control and 94 % of control | dose: 6.95 mg/kg/injection, schedule: Q01DX Z (ip), vehicle: carboxymethylcellulose (CMC) 96 % of control | dose: 12.5 mg/kg/injection, schedule: Q01DX009 (ip), vehicle: saline with Tween-80 101 % of control and 102 % of control | dose: 12.5 mg/kg/injection, schedule: Q04DX002 (ip), vehicle: saline with Tween-80 97 % of control and 100 % of control | dose: 13.9 mg/kg/injection, schedule: Q01DX Z (ip), vehicle: carboxymethylcellulose (CMC) 103 % of control | dose: 25.0 mg/kg/injection, schedule: Q01DX009 (ip), vehicle: saline with Tween-80 93 % of control and 100 % of control | dose: 25.0 mg/kg/injection, schedule: Q04DX002 (ip), vehicle: saline with Tween-80 97 % of control and 91 % of control | dose: 27.8 mg/kg/injection, schedule: Q01DX Z (ip), vehicle: carboxymethylcellulose (CMC) 101 % of control | dose: 50.0 mg/kg/injection, schedule: Q01DX009 (ip), vehicle: saline with Tween-80 98 % of control and 111 % of control | dose: 50.0 mg/kg/injection, schedule: Q04DX002 (ip), vehicle: saline with Tween-80 99 % of control and 100 % of control | dose: 55.6 mg/kg/injection, schedule: Q01DX Z (ip), vehicle: carboxymethylcellulose (CMC) 97 % of control | dose: 100.0 mg/kg/injection, schedule: Q04DX002 (ip), vehicle: saline with Tween-80 99 % of control and 102 % of control | dose: 200.0 mg/kg/injection, schedule: Q04DX002 (ip), vehicle: saline with Tween-80 103 % of control

CCCC(=O)OC(OC(=O)CCC)c1cccc(OC(=O)CC)c1
inactive: dose: 222.0 mg/kg/injection, schedule: Q01DX Z (ip), vehicle: methylcellulose (MC) 96 % of control | dose: 333.0 mg/kg/injection, schedule: Q01DX Z (ip), vehicle: methylcellulose (MC) 104 % of control | dose: 500.0 mg/kg/injection, schedule: Q01DX Z (ip), vehicle: methylcellulose (MC) 105 % of control

Cc1c(C(=O)CCl)c(=O)n(-c2ccccc2)n1C
inactive: dose: 50.0 mg/kg/injection, schedule: Q01DX009 (ip), vehicle: Klucel (hydroxypropylcellulose) (HPC) 100 % of control | [1] 100 % of control | [2] 95 % of control | [3] 101 % of control

CC1(C)C2CCC(I)(C2)C1O (configuration not stated)
inactive: dose: 100.0 mg/kg/injection, schedule: Q01DX001 (ip), vehicle: saline with Tween-80 105 % of control | dose: 200.0 mg/kg/injection, schedule: Q01DX001 (ip), vehicle: saline with Tween-80 100 % of control | dose: 400.0 mg/kg/injection, schedule: Q01DX001 (ip), vehicle: saline with Tween-80 105 % of control

COC(=O)CCC(=O)NCCc1cccc(OC)c1
inactive: [2] 97 % of control | [3] 98 % of control | dose: 400.0 mg/kg/injection, schedule: Q04DX003 (ip), vehicle: Klucel (hydroxypropylcellulose) (HPC) 92 % of control

Cc1c2c(ccc3ccccc32)c[n+]2ccccc12
inactive: dose: 1.1 mg/kg/injection, schedule: Q01DX009 (ip), vehicle: saline 97 % of control | dose: 1.1 mg/kg/injection, schedule: Q03HX024 (ip), vehicle: saline 98 % of control | dose: 1.7 mg/kg/injection, schedule: Q01DX009 (ip), vehicle: saline 105 % of control | dose: 1.7 mg/kg/injection, schedule: Q03HX024 (ip), vehicle: saline 100 % of control | dose: 1.8 mg/kg/injection, schedule: Q01DX Z (ip), vehicle: methylcellulose (MC) 116 % of control | dose: 2.0 mg/kg/injection, schedule: Q01DX009 (ip), vehicle: saline 96 % of control | dose: 2.5 mg/kg/injection, schedule: Q01DX Z (ip), vehicle: carboxymethylcellulose (CMC) 105 % of control | dose: 2.6 mg/kg/injection, schedule: Q01DX009 (ip), vehicle: saline 102 % of control | dose: 2.6 mg/kg/injection, schedule: Q03HX024 (ip), vehicle: saline 108 % of control | dose: 2.7 mg/kg/injection, schedule: Q01DX Z (ip), vehicle: methylcellulose (MC) 105 % of control | dose: 3.0 mg/kg/injection, schedule: Q01DX009 (ip), vehicle: saline 108 % of control | dose: 4.0 mg/kg/injection, schedule: Q01DX009 (ip), vehicle: saline 103 % of control | dose: 4.0 mg/kg/injection, schedule: Q01DX Z (ip), vehicle: methylcellulose (MC) 107 % of control | dose: 4.0 mg/kg/injection, schedule: Q03HX024 (ip), vehicle: saline 98 % of control | dose: 4.4 mg/kg/injection, schedule: Q01DX Z (ip), vehicle: methylcellulose (MC) 119 % of control | dose: 4.5 mg/kg/injection, schedule: Q01DX009 (ip), vehicle: saline 108 % of control | dose: 5.0 mg/kg/injection, schedule: Q01DX001 (ip), vehicle: carboxymethylcellulose (CMC) 100 % of control | dose: 5.0 mg/kg/injection, schedule: Q01DX Z (ip), vehicle: carboxymethylcellulose (CMC) 119 % of control | dose: 6.0 mg/kg/injection, schedule: Q01DX009 (ip), vehicle: saline 105 % of control and 107 % of control | dose: 6.0 mg/kg/injection, schedule: Q03HX024 (ip), vehicle: saline 104 % of control and 106 % of control | dose: 6.25 mg/kg/injection, schedule: Q04DX003 (ip), vehicle: saline 104 % of control | dose: 6.6 mg/kg/injection, schedule: Q01DX Z (ip), vehicle: methylcellulose (MC) 121 % of control | dose: 9.0 mg/kg/injection, schedule: Q01DX009 (ip), vehicle: saline 107 % of control | dose: 10.0 mg/kg/injection, schedule: Q01DX001 (ip), vehicle: carboxymethylcellulose (CMC) 107 % of control | dose: 11.0 mg/kg/injection, schedule: Q01DX001 (ip), vehicle: saline 109 % of control | dose: 11.0 mg/kg/injection, schedule: Q04DX003 (ip), vehicle: saline 107 % of control | dose: 12.5 mg/kg/injection, schedule: Q04DX003 (ip), vehicle: saline 108 % of control | dose: 13.0 mg/kg/injection, schedule: Q01DX009 (ip), vehicle: saline 111 % of control | dose: 15.0 mg/kg/injection, schedule: Q01DX Z (ip), vehicle: methylcellulose (MC) 97 % of control | dose: 17.0 mg/kg/injection, schedule: Q01DX001 (ip), vehicle: saline 110 % of control | dose: 17.0 mg/kg/injection, schedule: Q04DX003 (ip), vehicle: saline 105 % of control | dose: 20.0 mg/kg/injection, schedule: Q01DX001 (ip), vehicle: carboxymethylcellulose (CMC) 105 % of control | dose: 20.0 mg/kg/injection, schedule: Q01DX009 (ip), vehicle: saline 123 % of control | dose: 26.0 mg/kg/injection, schedule: Q01DX001 (ip), vehicle: saline 107 % of control | dose: 26.0 mg/kg/injection, schedule: Q04DX003 (ip), vehicle: saline 112 % of control

Cc1ccc(C2C(C(=O)O)C2c2ccccc2)cc1 (configuration not stated)
inactive: dose: 100.0 mg/kg/injection, schedule: Q04DX002 (ip), vehicle: Klucel (hydroxypropylcellulose) (HPC) 106 % of control | dose: 200.0 mg/kg/injection, schedule: Q04DX002 (ip), vehicle: Klucel (hydroxypropylcellulose) (HPC) 95 % of control | dose: 400.0 mg/kg/injection, schedule: Q04DX002 (ip), vehicle: Klucel (hydroxypropylcellulose) (HPC) 92 % of control

CCOc1ccc(/C=C(\C#N)c2cccc(Cl)c2)cc1
inactive: [1] 100 % of control | dose: 200.0 mg/kg/injection, schedule: Q01DX009 (ip), vehicle: Klucel (hydroxypropylcellulose) (HPC) 93 % of control | dose: 400.0 mg/kg/injection, schedule: Q01DX009 (ip), vehicle: Klucel (hydroxypropylcellulose) (HPC) 91 % of control

CCOP(=O)(OCC)C1=C(P(=O)(OCC)OCC)CCCC1
inactive: dose: 9.5 mg/kg/injection, schedule: Q01DX001 (ip), vehicle: other 103 % of control | dose: 19.0 mg/kg/injection, schedule: Q01DX001 (ip), vehicle: other 105 % of control | dose: 38.0 mg/kg/injection, schedule: Q01DX001 (ip), vehicle: other 95 % of control
